For 29 molecules, IC50 results are on record in US20080293696A1, “2-Aminoarylcarboxamides Useful as Cancer Chemotherapeutic Agents” (Bayer Pharmaceuticals Corporation, priority 2004, published 2008).

Structures can show the parent of a compound that is named as a salt.

For one assay, the system named is PAKT/PKB (p-(S473) AKT) in H209 small cell lung carcinoma cells stimulated with Stem Cell Factor. The experiment in a line: PAKT/PKB Cytoblot Assay with H209 cells (SCF-stimulated p-(S473) AKT). Format: cell-based. Conditions: Homo sapiens, NCI-H209, compound 1 hour, SCF 25 ng/mL 5 minutes, group: between 500 nM and 1 μM (units in value). In short, it runs like this: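 H209 SCLC cells kept overnight in RPMI with 0.1% BSA were pretreated 1 h at 37 °C with compound (0.01–10 μM final), then stimulated with SCF 25 ng/mL for 5 min. After formaldehyde/methanol fixation, p-(S473) AKT was detected in-cell with HRP secondary and ECL chemiluminescence, and IC50 was derived.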
Regarding `CC1(C)OCC(CNC(=O)c2cc(CNc3ccccc3C(=O)Nc3ccc4c(c3)OC(F)(F)O4)ccn2)O1` (centres unmarked) [Example 78, 4-{[(2-{[(2,2-Difluoro-1,3-benzodioxol-5-yl)amino]carbonyl}phenyl)amino]methyl}-N-[(2,2-dimethyl-1,3-dioxolan-4-yl)methyl]pyridine-2-carboxamide], the IC50 (commonly the concentration needed to halve the response being measured) lay within 0.5 to 1 µM.

As to `O=C(Nc1ccc2c(c1)C(F)(F)OC(F)(C(F)(F)F)O2)c1cccnc1NCc1ccncc1` (centres unmarked) [Example 16, 2-[(Pyridin-4-ylmethyl)amino]-N-[2,4,4-trifluoro-2-(trifluoromethyl)-4H-1,3-benzodioxin-6-yl]nicotinamide], the IC50 lay in the range of 0.5 to 1 µM.

With `N#Cc1cc(CNc2cc(F)c(F)cc2C(=O)Nc2ccc3c(c2)OC(F)(F)C(F)(F)O3)ccn1` [Example 38, 2-{[(2-cyanopyridin-4-yl)methyl]amino}-4,5-difluoro-N-(2,2,3,3-tetrafluoro-2,3-dihydro-1,4-benzodioxin-6-yl)benzamide], the IC50 lay within 0.5 to 1 µM.

`CN(C)c1nccc(CNc2ccccc2C(=O)Nc2ccc3c(c2)OC(F)(F)C(F)(F)O3)n1` [Example 50, 2-({[2-(dimethylamino)pyrimidin-4-yl]methyl}amino)-N-(2,2,3,3-tetrafluoro-2,3-dihydro-1,4-benzodioxin-6-yl)benzamide] came in with an IC50 of 0.5 to 1 µM.

Consider `NCC(O)CNc1cc(CNc2ccccc2C(=O)Nc2ccc3c(c2)OC(F)(F)O3)ccn1` (centres unmarked) [Example 142, 2-[({2-[(3-amino-2-hydroxypropyl)amino]pyridin-4-yl}methyl)amino]-N-(2,2-difluoro-1,3-benzodioxol-5-yl)benzamidebis(trifluoroacetate)(salt)], for which the IC50 fell in the range of 0.5 to 1 µM.

`CCNC(=O)c1cc(CNc2cc(F)c(F)cc2C(=O)Nc2ccc3c(c2)OC(F)(F)C(F)(F)O3)ccn1` [Example 43, 4-{[(4,5-difluoro-2-{[(2,2,3,3-tetrafluoro-2,3-dihydro-1,4-benzodioxin-6-yl)amino]carbonyl}phenyl)amino]methyl}-N-ethylpyridine-2-carboxamide] had a half-inhibitory concentration (IC50) of 0.5 to 1 µM.

The assay is the same for the next values; noted with them: Homo sapiens, NCI-H209, compound 1 hour, SCF 25 ng/mL 5 minutes, group: between 1 and 3 μM.
`CCOc1cc(CCNC(=O)c2cc(CNc3ccccc3C(=O)Nc3ccc4c(c3)OC(F)(F)O4)ccn2)ccc1OC` [Example 126, 4-{[(2-{[(2,2-difluoro-1,3-benzodioxol-5-yl)amino]carbonyl}phenyl)amino]methyl}-N-[2-(3-ethoxy-4-methoxyphenyl)ethyl]pyridine-2-carboxamide]: the IC50 lay within 1 to 3 µM.

`O=C(Nc1ccc2c(c1)OC(F)(F)C(F)(F)O2)c1ncncc1NCc1ccncc1` [Example 39, 5-[(pyridin-4-ylmethyl)amino]-N-(2,2,3,3-tetrafluoro-2,3-dihydro-1,4-benzodioxin-6-yl)pyrimidine-4-carboxamide] showed a 50% inhibitory concentration (IC50) of 1 to 3 µM.

`O=C(NCCCO)c1cc(CNc2ccccc2C(=O)Nc2ccc3c(c2)OC(F)(F)O3)ccn1` [Example 93, 4-{[(2-{[(2,2-difluoro-1,3-benzodioxol-5-yl)amino]carbonyl}phenyl)amino]methyl}-N-(3-hydroxypropyl)pyridine-2-carboxamide] showed a half-inhibitory concentration (IC50) of 1 to 3 µM.

`CC(C)C[C@H](CO)NC(=O)c1cc(CNc2ccccc2C(=O)Nc2ccc3c(c2)OC(F)(F)O3)ccn1` [Example 109, 4-{[(2-{[(2,2-difluoro-1,3-benzodioxol-5-yl)amino]carbonyl}phenyl)amino]methyl}-N-[1-(hydroxymethyl)-3-methylbutyl]pyridine-2-carboxamide]: the IC50 was in the range of 1 to 3 µM.

Turning to `N#Cc1cc(CNc2cc(F)c(F)cc2C(=O)Nc2ccc3c(c2)OC(F)(F)O3)ccn1` [Example 36, 2-{[(2-cyanopyridin-4-yl)methyl]amino}-N-(2,2-difluoro-1,3-benzodioxol-5-yl)-4,5-difluorobenzamide], the IC50 is 1 to 3 µM.

The assay is the same for the next values; noted with them: Homo sapiens, NCI-H209, compound 1 hour, SCF 25 ng/mL 5 minutes, group: less than 500 nM.
On to `O=C(Nc1ccc2c(c1)OC(F)(F)C(F)(F)O2)c1cnccc1NCc1ccncc1` [Example 14, 4-[(pyridin-4-ylmethyl)amino]-N-(2,2,3,3-tetrafluoro-2,3-dihydro-1,4-benzodioxin-6-yl)nicotinamide], for which the concentration for half-maximal inhibition (IC50) is < 0.5 µM.

As for `CC(=O)OCC(=O)Nc1cc(CNc2ccccc2C(=O)Nc2ccc3c(c2)OC(F)(F)O3)ccn1` [Example 156, 2-[(4-{[(2-{[(2,2-difluoro-1,3-benzodioxol-5-yl)amino]carbonyl}phenyl)amino]methyl}pyridin-2-yl)aminol-2-oxoethyl acetate], the concentration for half-maximal inhibition (IC50) was < 0.5 µM.

On to `COc1cccc(NCc2ccncc2)c1C(=O)Nc1ccc2c(c1)C(F)(F)OC(F)(F)O2` [Example 10, 2-methoxy-6-[(pyridin-4-ylmethyl)amino]-N-(2,2,4,4-tetrafluoro-4H-1,3-benzodioxin-6-yl)benzamide], for which the 50% inhibitory concentration (IC50) is < 0.5 µM.

As to `COC(C)(C)C(=O)Nc1cc(CNc2ccccc2C(=O)Nc2ccc3c(c2)OC(F)(F)O3)ccn1` [Example 159, N-(2,2-difluoro-1,3-benzodioxol-5-yl)-2-[({2-[(2-methoxy-2-methylpropanoyl)amino]pyridin-4-yl}methyl)amino]benzamide], the IC50 was < 0.5 µM.

Take `COC(C)C(=O)Nc1cc(CNc2ccccc2C(=O)Nc2ccc3c(c2)OC(F)(F)O3)ccn1` (centres unmarked) [Example 151, N-(2,2-difluoro-1,3-benzodioxol-5-yl)-2-[({2-[(2-methoxypropanoyl)amino]pyridin-4yl}methyl)amino]benzamide]: the IC50 is < 0.5 µM.

In the case of `CCCNC(=O)Nc1cc(CNc2ccccc2C(=O)Nc2ccc3c(c2)OC(F)(F)O3)ccn1` [Example 169, N-(2,2-difluoro-1,3-benzodioxol-5-yl)-2-{[(2-{[(propylamino)carbonyl]amino}pyridin-4-yl)methyl]amino}benzamide], the concentration for half-maximal inhibition (IC50) is < 0.5 µM.

On to `CC(=O)Nc1cc(CNc2ccccc2C(=O)Nc2ccc3c(c2)OC(F)(F)O3)ccn1` [Example 152, 2-({[2-(acetylamino)pyridin-4-yl]methyl}amino)-N-(2,2-difluoro-1,3-benzodioxol-5-yl)benzamide], for which the IC50 is < 0.5 µM.

As to `COCCCNC(=O)c1cc(CNc2ccccc2C(=O)Nc2ccc3c(c2)OC(F)(F)O3)ccn1` [Example 89, 4-{[(2-{[(2,2-difluoro-1,3-benzodioxol-5-yl)amino]carbonyl}phenyl)amino]methyl}-N-(3-methoxypropyl)pyridine-2-carboxamide], the IC50 is < 0.5 µM.

With `O=C(NCCCn1ccnc1)c1cc(CNc2ccccc2C(=O)Nc2ccc3c(c2)OC(F)(F)O3)ccn1` [Example 96, 4-{[(2-{[(2,2-difluoro-1,3-benzodioxol-5-yl)amino]carbonyl}phenyl)amino]methyl}-N-[3-(1H-imidazol-1-yl)propyl]pyridine-2-carboxamide], the IC50 was < 0.5 µM.

For `O=C(Nc1ccc2c(c1)OC(F)(F)C(F)(F)O2)c1ccccc1NCc1ccncc1` [Example 6, 2-[(pyridin-4-ylmethyl)amino]-N-(2,2,3,3-tetrafluoro-2,3-dihydro-1,4-benzodioxin-6-yl)benzamide], the IC50 was < 0.5 µM.

For `CNC(=O)c1cc(CNc2ccc(F)cc2C(=O)Nc2ccc3c(c2)OC(F)(F)C(F)(F)O3)ccn1` [Example 34, 4-{[(4-fluoro-2-{[(2,2,3,3-tetrafluoro-2,3-dihydro-1,4-benzodioxin-6-yl)amino]carbonyl}phenyl)amino]methyl}-N-methylpyridine-2-carboxamide], the 50% inhibitory concentration (IC50) is < 0.5 µM.

Regarding `CCN(CC)CCCNC(=O)c1cc(CNc2ccccc2C(=O)Nc2ccc3c(c2)OC(F)(F)O3)ccn1` [Example 87, N-[3-(diethylamino)propyl]-4-{[(2-{[(2,2-difluoro-1,3-benzodioxol-5-yl)amino]carbonyl}phenyl)amino]methyl}pyridine-2-carboxamide], the IC50 was < 0.5 µM.

With `O=C(NCCc1ccccn1)c1cc(CNc2ccccc2C(=O)Nc2ccc3c(c2)OC(F)(F)O3)ccn1` [Example 120, 4-{[(2-{[(2,2-difluoro-1,3-benzodioxol-5-yl)amino]carbonyl}phenyl)amino]methyl}-N-(2-pyridin-2-ylethyl)pyridine-2-carboxamide], the concentration for half-maximal inhibition (IC50) is < 0.5 µM.

With `O=C(Nc1ccc2c(c1)OC(F)(F)O2)c1ccccc1NCc1ccnc(NCCCO)c1` [Example 137, N-(2,2-difluoro-1,3-benzodioxol-5-yl)-2-[({2-[(3-hydroxypropyl)amino]pyridin-4-yl}methyl)amino]benzamide trifluoroacetate(salt)], the IC50 is < 0.5 µM.

With `CN(C)CCCCCNC(=O)c1cc(CNc2ccccc2C(=O)Nc2ccc3c(c2)OC(F)(F)O3)ccn1` [Example 100, 4-{[(2-{[(2,2-difluoro-1,3-benzodioxol-5-yl)amino]carbonyl}phenyl)amino]methyl)-N-[5-(dimethylamino)pentyl]pyridine2-carboxamide], the half-inhibitory concentration (IC50) is < 0.5 µM.

For `CNC(=O)c1cc(CNc2cc(F)ccc2C(=O)Nc2ccc3c(c2)OC(F)(F)C(F)(F)O3)ccn1` [Example 32, 4-{[(5-fluoro-2-{[(2,2,3,3-tetrafluoro-2,3-dihydro-1,4-benzodioxin-6-yl)amino]carbonyl}phenyl)amino]methyl}-N-methylpyridine-2-carboxamide], the 50% inhibitory concentration (IC50) is < 0.5 µM.

For the molecule `CCNC(=O)c1cc(CNc2ccccc2C(=O)Nc2ccc3c(c2)OC(F)(F)O3)ccn1` [Example 45, 4-{[(2-{[(2,2-difluoro-1,3-benzodioxol-5-yl)amino]carbonyl}phenyl)amino]methyl}-N-ethylpyridine-2-carboxamide], the half-inhibitory concentration (IC50) is < 0.5 µM.

Regarding `O=C(Nc1ccc2c(c1)OC(F)(F)O2)c1ccccc1NCc1ccnc(NCC(O)CO)c1` (centres unmarked) [Example 149, N-(2,2-difluoro-1,3-benzodioxol-5-yl)-2-[({2-[(2,3-dihydroxypropyl)amino]pyridin-4-yl}methyl)amino]benzamidetrifluoroacetate (salt)], the IC50 is < 0.5 µM.
